Measurements as given in publication PMC6151383 (Molecules : A Journal of Synthetic Chemistry and Natural …, 2017).
Values after ≈ are worked out from the molar mass of the structure shown.

Each molecule was assayed on Mycobacterium tuberculosis 331/88 (H37Rv) (assay: In vitro antimycobacterial MIC, M. tuberculosis). Conditions: 336 h, 14 d incubation, read-out: MIC Mtb. 331/88 14 d.
Assay type: cell-based

| Compound | MIC [µM] |
| --- | --- |
| Cc1ccc(O)c(C=Nc2ccc(S(=O)(=O)Nc3ncccn3)cc2)c1 [Compound 2g, 4-[(2-Hydroxy-5-methylbenzylidene)amino]-N-(pyrimidin-2-yl)benzenesulfonamide] | 125 (≈ 46.1 µg/mL) |

Same assay, conditions: 504 h, 21 d incubation, read-out: MIC Mtb. 331/88 21 d

| Compound | MIC [µM] |
| --- | --- |
| Cc1ccc(O)c(C=Nc2ccc(S(=O)(=O)Nc3ncccn3)cc2)c1 [Compound 2g, 4-[(2-Hydroxy-5-methylbenzylidene)amino]-N-(pyrimidin-2-yl)benzenesulfonamide] | 125 (≈ 46.1 µg/mL) |

Each molecule was assayed on Staphylococcus epidermidis H 6966/08 (assay: Antibacterial microdilution broth MIC, S. epidermidis). Conditions: Staphylococcus epidermidis, H6966/08, 24 h, read-out: MIC SE 24 h.
Assay type: cell-based

| Compound | MIC [µM] |
| --- | --- |
| Cc1ccc(O)c(C=Nc2ccc(S(=O)(=O)Nc3ncccn3)cc2)c1 [Compound 2g, 4-[(2-Hydroxy-5-methylbenzylidene)amino]-N-(pyrimidin-2-yl)benzenesulfonamide] | 125 (≈ 46.1 µg/mL) |

Same assay, conditions: Staphylococcus epidermidis, H6966/08, 48 h, read-out: MIC SE 48 h

| Compound | MIC [µM] |
| --- | --- |
| Cc1ccc(O)c(C=Nc2ccc(S(=O)(=O)Nc3ncccn3)cc2)c1 [Compound 2g, 4-[(2-Hydroxy-5-methylbenzylidene)amino]-N-(pyrimidin-2-yl)benzenesulfonamide] | 125 (≈ 46.1 µg/mL) |

These molecules were tested on Aspergillus fumigatus 231 (assay: Antifungal microdilution broth MIC, A. fumigatus). Conditions: Aspergillus fumigatus, 231; 48 h incubation; read-out: MIC AF 48 h.
Assay type: cell-based

| Compound | MIC [µM] |
| --- | --- |
| Cc1ccc(O)c(C=Nc2ccc(S(=O)(=O)Nc3ncccn3)cc2)c1 [Compound 2g, 4-[(2-Hydroxy-5-methylbenzylidene)amino]-N-(pyrimidin-2-yl)benzenesulfonamide] | > 500 |

These molecules were tested on Candida sp. (assay: Selectivity index for Candida sp. (IC50 HepG2/MIC)). Conditions: all Candida species.
Assay type: cell-based

| Compound | SI for Candida sp. |
| --- | --- |
| Cc1ccc(O)c(C=Nc2ccc(S(=O)(=O)Nc3ncccn3)cc2)c1 [Compound 2g, 4-[(2-Hydroxy-5-methylbenzylidene)amino]-N-(pyrimidin-2-yl)benzenesulfonamide] | inactive |

These molecules were tested on Staphylococcus aureus CCM 4516/08 (assay: Antibacterial microdilution broth MIC, S. aureus). Conditions: Staphylococcus aureus, CCM4516; 48 h incubation; read-out: MIC SA 48 h.
Assay type: cell-based

| Compound | MIC [µM] |
| --- | --- |
| Cc1ccc(O)c(C=Nc2ccc(S(=O)(=O)Nc3ncccn3)cc2)c1 [Compound 2g, 4-[(2-Hydroxy-5-methylbenzylidene)amino]-N-(pyrimidin-2-yl)benzenesulfonamide] | > 250 |

The molecules below were run on Mycobacterium kansasii 235/80 (assay: In vitro antimycobacterial MIC, M. kansasii 235/80). Conditions: 235/80, 168 h, 7 d incubation, read-out: MIC M. kansasii 235/80 7 d.
Assay type: cell-based

| Compound | MIC [µM] |
| --- | --- |
| Cc1ccc(O)c(C=Nc2ccc(S(=O)(=O)Nc3ncccn3)cc2)c1 [Compound 2g, 4-[(2-Hydroxy-5-methylbenzylidene)amino]-N-(pyrimidin-2-yl)benzenesulfonamide] | 125 (≈ 46.1 µg/mL) |

Same assay, conditions: 235/80, 336 h, 14 d incubation, read-out: MIC M. kansasii 235/80 14 d

| Compound | MIC [µM] |
| --- | --- |
| Cc1ccc(O)c(C=Nc2ccc(S(=O)(=O)Nc3ncccn3)cc2)c1 [Compound 2g, 4-[(2-Hydroxy-5-methylbenzylidene)amino]-N-(pyrimidin-2-yl)benzenesulfonamide] | 125 (≈ 46.1 µg/mL) |

Same assay, conditions: 235/80, 504 h, 21 d incubation, read-out: MIC M. kansasii 235/80 21 d

| Compound | MIC [µM] |
| --- | --- |
| Cc1ccc(O)c(C=Nc2ccc(S(=O)(=O)Nc3ncccn3)cc2)c1 [Compound 2g, 4-[(2-Hydroxy-5-methylbenzylidene)amino]-N-(pyrimidin-2-yl)benzenesulfonamide] | 250 (≈ 92.1 µg/mL) |

The molecules below were run on Enterococcus faecalis J 14365/08 (assay: Antibacterial microdilution broth MIC, E. faecalis). Conditions: Enterococcus faecalis, J14365/08; 48 h incubation; read-out: MIC EF 48 h.
Assay type: cell-based

| Compound | MIC [µM] |
| --- | --- |
| Cc1ccc(O)c(C=Nc2ccc(S(=O)(=O)Nc3ncccn3)cc2)c1 [Compound 2g, 4-[(2-Hydroxy-5-methylbenzylidene)amino]-N-(pyrimidin-2-yl)benzenesulfonamide] | > 250 |

These molecules were tested on Lichtheimia corymbifera 272 (assay: Antifungal microdilution broth MIC, L. corymbifera). Conditions: Lichtheimia corymbifera, 272; 48 h incubation; read-out: MIC LC 48 h.
Assay type: cell-based

| Compound | MIC [µM] |
| --- | --- |
| Cc1ccc(O)c(C=Nc2ccc(S(=O)(=O)Nc3ncccn3)cc2)c1 [Compound 2g, 4-[(2-Hydroxy-5-methylbenzylidene)amino]-N-(pyrimidin-2-yl)benzenesulfonamide] | > 500 |

These molecules were tested on Candida krusei E28 (assay: Antifungal microdilution broth MIC, C. krusei). Conditions: Pichia kudriavzevii, E28; 48 h incubation; read-out: MIC CK 48 h.
Assay type: cell-based

| Compound | MIC [µM] |
| --- | --- |
| Cc1ccc(O)c(C=Nc2ccc(S(=O)(=O)Nc3ncccn3)cc2)c1 [Compound 2g, 4-[(2-Hydroxy-5-methylbenzylidene)amino]-N-(pyrimidin-2-yl)benzenesulfonamide] | > 500 |

These molecules were tested on ESBL-positive Klebsiella pneumoniae J 14368/08 (assay: not given). Conditions: 24 h.

| Compound | MIC KP-E 24 h [µM] |
| --- | --- |
| Cc1ccc(O)c(C=Nc2ccc(S(=O)(=O)Nc3ncccn3)cc2)c1 [Compound 2g, 4-[(2-Hydroxy-5-methylbenzylidene)amino]-N-(pyrimidin-2-yl)benzenesulfonamide] | >250 |

Same assay, conditions: 48 h

| Compound | MIC KP-E 48 h [µM] |
| --- | --- |
| Cc1ccc(O)c(C=Nc2ccc(S(=O)(=O)Nc3ncccn3)cc2)c1 [Compound 2g, 4-[(2-Hydroxy-5-methylbenzylidene)amino]-N-(pyrimidin-2-yl)benzenesulfonamide] | >250 |

The molecules below were run on Pseudomonas aeruginosa CCM 1961 (assay: Antibacterial microdilution broth MIC, P. aeruginosa). Conditions: Pseudomonas aeruginosa, CCM1961; 48 h incubation; read-out: MIC PA 48 h.
Assay type: cell-based

| Compound | MIC [µM] |
| --- | --- |
| Cc1ccc(O)c(C=Nc2ccc(S(=O)(=O)Nc3ncccn3)cc2)c1 [Compound 2g, 4-[(2-Hydroxy-5-methylbenzylidene)amino]-N-(pyrimidin-2-yl)benzenesulfonamide] | > 250 |

What follows are molecules tested on Candida albicans ATCC 44859 (assay: Antifungal microdilution broth MIC, C. albicans). Conditions: ATCC44859, 48 h incubation, read-out: MIC CA 48 h.
Assay type: cell-based

| Compound | MIC [µM] |
| --- | --- |
| Cc1ccc(O)c(C=Nc2ccc(S(=O)(=O)Nc3ncccn3)cc2)c1 [Compound 2g, 4-[(2-Hydroxy-5-methylbenzylidene)amino]-N-(pyrimidin-2-yl)benzenesulfonamide] | > 500 |

These molecules were tested on Trichophyton interdigitale 445 (assay: Antifungal microdilution broth MIC, T. interdigitale). Conditions: SI = IC50 (HepG2)/MIC, Trichophyton interdigitale.
Assay type: cell-based

| Compound | SI for TI |
| --- | --- |
| Cc1ccc(O)c(C=Nc2ccc(S(=O)(=O)Nc3ncccn3)cc2)c1 [Compound 2g, 4-[(2-Hydroxy-5-methylbenzylidene)amino]-N-(pyrimidin-2-yl)benzenesulfonamide] | inactive |

Same assay, conditions: Trichophyton interdigitale, 445; 72 h incubation; read-out: MIC TI 72 h

| Compound | MIC [µM] |
| --- | --- |
| Cc1ccc(O)c(C=Nc2ccc(S(=O)(=O)Nc3ncccn3)cc2)c1 [Compound 2g, 4-[(2-Hydroxy-5-methylbenzylidene)amino]-N-(pyrimidin-2-yl)benzenesulfonamide] | > 500 |

Same assay, conditions: Trichophyton interdigitale, 445; 120 h incubation; read-out: MIC TI 120 h

| Compound | MIC [µM] |
| --- | --- |
| Cc1ccc(O)c(C=Nc2ccc(S(=O)(=O)Nc3ncccn3)cc2)c1 [Compound 2g, 4-[(2-Hydroxy-5-methylbenzylidene)amino]-N-(pyrimidin-2-yl)benzenesulfonamide] | > 500 |

Each molecule was assayed on Candida glabrata 20/I (assay: Antifungal microdilution broth MIC, C. glabrata). Conditions: Nakaseomyces glabratus, 48 h incubation, read-out: MIC CG 48 h.
Assay type: cell-based

| Compound | MIC [µM] |
| --- | --- |
| Cc1ccc(O)c(C=Nc2ccc(S(=O)(=O)Nc3ncccn3)cc2)c1 [Compound 2g, 4-[(2-Hydroxy-5-methylbenzylidene)amino]-N-(pyrimidin-2-yl)benzenesulfonamide] | > 500 |

Each molecule was assayed on Trichosporon asahii 1188 (assay: Antifungal microdilution broth MIC, T. asahii). Conditions: Trichosporon asahii, 1188; 48 h incubation; read-out: MIC TA 48 h.
Assay type: cell-based

| Compound | MIC [µM] |
| --- | --- |
| Cc1ccc(O)c(C=Nc2ccc(S(=O)(=O)Nc3ncccn3)cc2)c1 [Compound 2g, 4-[(2-Hydroxy-5-methylbenzylidene)amino]-N-(pyrimidin-2-yl)benzenesulfonamide] | > 500 |

Each molecule was assayed on M. kansasii 6509/96 (assay: In vitro antimycobacterial MIC, M. kansasii clinical isolate). Conditions: Mycobacterium kansasii, 6509/96, 168 h; 7 d incubation; read-out: MIC M. kansasii 6509/96 7 d.
Assay type: cell-based

| Compound | MIC [µM] |
| --- | --- |
| Cc1ccc(O)c(C=Nc2ccc(S(=O)(=O)Nc3ncccn3)cc2)c1 [Compound 2g, 4-[(2-Hydroxy-5-methylbenzylidene)amino]-N-(pyrimidin-2-yl)benzenesulfonamide] | 62.5 (≈ 23 µg/mL) |

Same assay, conditions: Mycobacterium kansasii, 6509/96, 336 h; 14 d incubation; read-out: MIC M. kansasii 6509/96 14 d

| Compound | MIC [µM] |
| --- | --- |
| Cc1ccc(O)c(C=Nc2ccc(S(=O)(=O)Nc3ncccn3)cc2)c1 [Compound 2g, 4-[(2-Hydroxy-5-methylbenzylidene)amino]-N-(pyrimidin-2-yl)benzenesulfonamide] | 62.5 (≈ 23 µg/mL) |

Same assay, conditions: Mycobacterium kansasii, 6509/96, 504 h; 21 d incubation; read-out: MIC M. kansasii 6509/96 21 d

| Compound | MIC [µM] |
| --- | --- |
| Cc1ccc(O)c(C=Nc2ccc(S(=O)(=O)Nc3ncccn3)cc2)c1 [Compound 2g, 4-[(2-Hydroxy-5-methylbenzylidene)amino]-N-(pyrimidin-2-yl)benzenesulfonamide] | 125 (≈ 46.1 µg/mL) |

What follows are molecules tested on Escherichia coli CCM 4517 (assay: Antibacterial microdilution broth MIC, E. coli). Conditions: Escherichia coli, CCM4517; 48 h incubation; read-out: MIC EC 48 h.
Assay type: cell-based

| Compound | MIC [µM] |
| --- | --- |
| Cc1ccc(O)c(C=Nc2ccc(S(=O)(=O)Nc3ncccn3)cc2)c1 [Compound 2g, 4-[(2-Hydroxy-5-methylbenzylidene)amino]-N-(pyrimidin-2-yl)benzenesulfonamide] | > 250 |

Each molecule was assayed on Klebsiella pneumoniae D 11750/08 (assay: not given). Conditions: 24 h.

| Compound | MIC KP 24 h [µM] |
| --- | --- |
| Cc1ccc(O)c(C=Nc2ccc(S(=O)(=O)Nc3ncccn3)cc2)c1 [Compound 2g, 4-[(2-Hydroxy-5-methylbenzylidene)amino]-N-(pyrimidin-2-yl)benzenesulfonamide] | >250 |

Same assay, conditions: 48 h

| Compound | MIC KP 48 h [µM] |
| --- | --- |
| Cc1ccc(O)c(C=Nc2ccc(S(=O)(=O)Nc3ncccn3)cc2)c1 [Compound 2g, 4-[(2-Hydroxy-5-methylbenzylidene)amino]-N-(pyrimidin-2-yl)benzenesulfonamide] | >250 |

The molecules below were run on Candida tropicalis 156 (assay: Antifungal microdilution broth MIC, C. tropicalis). Conditions: Candida tropicalis, 156; 48 h incubation; read-out: MIC CT 48 h.
Assay type: cell-based

| Compound | MIC [µM] |
| --- | --- |
| Cc1ccc(O)c(C=Nc2ccc(S(=O)(=O)Nc3ncccn3)cc2)c1 [Compound 2g, 4-[(2-Hydroxy-5-methylbenzylidene)amino]-N-(pyrimidin-2-yl)benzenesulfonamide] | > 500 |

The molecules below were run on Mycobacterium avium 330/88 (assay: In vitro antimycobacterial MIC, M. avium). Conditions: 330/88, 336 h, 14 d incubation, read-out: MIC M. avium 330/88 14 d.
Assay type: cell-based

| Compound | MIC [µM] |
| --- | --- |
| Cc1ccc(O)c(C=Nc2ccc(S(=O)(=O)Nc3ncccn3)cc2)c1 [Compound 2g, 4-[(2-Hydroxy-5-methylbenzylidene)amino]-N-(pyrimidin-2-yl)benzenesulfonamide] | 500 (≈ 184 µg/mL) |

Same assay, conditions: 330/88, 504 h, 21 d incubation, read-out: MIC M. avium 330/88 21 d

| Compound | MIC [µM] |
| --- | --- |
| Cc1ccc(O)c(C=Nc2ccc(S(=O)(=O)Nc3ncccn3)cc2)c1 [Compound 2g, 4-[(2-Hydroxy-5-methylbenzylidene)amino]-N-(pyrimidin-2-yl)benzenesulfonamide] | 1000 (≈ 368 µg/mL) |
